Experimental data reported in patent publication US9587266B2, “Mutant luciferases” (University of Massachusetts, priority 2011, dated 2017).
Where “and” joins values, the source holds several entries; their conditions need not be identical. Equal entries are not always repeated. Where two headings read alike, the source gives them in different places.

Experiments:
R218K mutant luciferase = molecular target: T1, R218K mutant luciferase (Photinus pyralis, UniProt P08659, R218K); assay type: biochemical; settings: for Apparent Vmax / Km: R218K luciferase, purified protein; for Km: 3 minutes post-substrate addition, read-out: Apparent Km
T1 construct: The full firefly (Photinus pyralis) luciferase gene was PCR amplified from pGL3 (Promega); GST (N, cleaved yes); made in house; host or cells: E. coli JM109
Procedure: (§1) The PCR product was cloned into the BamH1 and NotI sites of pGEX6P-1 for bacterial expression. Mutant proteins were created using the Quickchange site-directed mutagenesis kit (Stratagene). Saturating mutagenesis was performed using the used the degenerate codon NNK at sites predicted to impact or alter substrate biding including F247, T251, L286, S347, R337, R218, Q338, Y340, A313, and I351 using the degenerate codon NNK.
(§2) Luminescence assays in 96-well plates were initiated by adding 30 μL 2× substrate in 20 mM Tris pH 7.6, 0.1 mM EDTA, 8 mM MgSO4, 4 mM ATP, and 1 mM TCEP to 30 μL of 20 nM purified luciferase in 20 mM Tris pH 7.6, 0.1 mM EDTA, 1 mM TCEP and 0.4 mg/mL BSA.

S347A mutant luciferase = molecular target: T2, S347A mutant luciferase (Photinus pyralis, UniProt P08659, S347A); assay type: biochemical; settings: purified protein; for Km: 3 minutes post-substrate addition, read-out: Apparent Km
T2 construct: The full firefly (Photinus pyralis) luciferase gene was PCR amplified from pGL3 (Promega); GST (N, cleaved yes); made in house; host or cells: E. coli JM109
Procedure: as §1, §2

WT luciferase [1] = molecular target: T3, WT luciferase (Photinus pyralis, UniProt P08659); assay: Titration assay with purified protein; assay type: biochemical; settings: for Km: 3 minutes post-substrate addition, read-out: Apparent Km
T3 construct: The full firefly (Photinus pyralis) luciferase gene was PCR amplified from pGL3 (Promega); GST (N, cleaved yes); made in house; host or cells: E. coli JM109
Procedure: as §1, with “NNK. The point mutants S347A, L286A, A348G, E311A, I351A, A313G, R337A, H245A and L342A were made independently.” for “NNK.”
as §2, with “BSA. Titration assays were performed 3 minutes post-substrate addition in a Turner Veritas luminometer with final substrate concentrations ranging from 0.122-250 μM or 0.244-500 μM.” for “BSA.”

L286M mutant luciferase = molecular target: T4, L286M mutant luciferase (Photinus pyralis, UniProt P08659, L286M); assay: Titration assay with purified protein; assay type: biochemical; settings: for Km: 3 minutes post-substrate addition, read-out: Apparent Km
T4 construct: The full firefly (Photinus pyralis) luciferase gene was PCR amplified from pGL3 (Promega); GST (N, cleaved yes); made in house; host or cells: E. coli JM109
Procedure: as §1, §2

T251S mutant luciferase = molecular target: T5, T251S mutant luciferase (Photinus pyralis, UniProt P08659, T251S); assay: Titration assay with purified protein; assay type: biochemical; settings: for Km: 3 minutes post-substrate addition, read-out: Apparent Km
T5 construct: The full firefly (Photinus pyralis) luciferase gene was PCR amplified from pGL3 (Promega); GST (N, cleaved yes); made in house; host or cells: E. coli JM109
Procedure: as §1, §2

R218K + L342A luciferase = molecular target: T6, R218K + L342A luciferase (Photinus pyralis, UniProt P08659, L342A/R218K); assay type: biochemical
T6 construct: The full firefly (Photinus pyralis) luciferase gene was PCR amplified from pGL3 (Promega); GST (N, cleaved yes); made in house; host or cells: E. coli JM109
Procedure: (§3) Purified mutant luciferases were used in bioluminescence emission and burst kinetics scans. Each purified protein in 20 mM Tris pH 7.6, 0.1 mM EDTA, 1 mM TCEP and 0.4 mg/mL BSA was added to 2× substrate in 20 mM Tris pH 7.6, 0.1 mM EDTA, 8 mM MgSO4, 4 mM ATP, and 1 mM TCEP in a cuvette.
(§4) Luciferase was rapidly injected into a cuvette containing substrate, and the emission from 400-800 nm was recorded in a SPEX FluoroMax-3 fluorimeter with closed excitation slits.

WT luciferase [2] = molecular target: T3, WT luciferase; assay type: biochemical; settings: for Maximum Emission Wavelength of Selected Substrate: Table 3
Procedure: as §3, §4

L286M + S347A luciferase = molecular target: T7, L286M + S347A luciferase (Photinus pyralis, UniProt P08659, L286M/S347A); assay: Bioluminescence emission scan; assay type: biochemical
T7 construct: The full firefly (Photinus pyralis) luciferase gene was PCR amplified from pGL3 (Promega); GST (N, cleaved yes); made in house; host or cells: E. coli JM109
Procedure: (§5) Purified mutant luciferases were used in bioluminescence emission and burst kinetics scans.
as §4

R218K luciferase = molecular target: T8, R218K luciferase (Photinus pyralis, UniProt P08659, R218K); assay: Bioluminescence emission scan; assay type: biochemical
T8 construct: The full firefly (Photinus pyralis) luciferase gene was PCR amplified from pGL3 (Promega); GST (N, cleaved yes); made in house; host or cells: E. coli JM109
Procedure: as §5, §4

L342A luciferase = molecular target: T9, L342A luciferase (Photinus pyralis, UniProt P08659, L342A); assay: Bioluminescence emission scan; assay type: biochemical
T9 construct: The full firefly (Photinus pyralis) luciferase gene was PCR amplified from pGL3 (Promega); GST (N, cleaved yes); made in house; host or cells: E. coli JM109
Procedure: as §5, §4

F247V luciferase = molecular target: T10, F247V luciferase (Photinus pyralis, UniProt P08659, F247V); assay: Bioluminescence emission scan; assay type: biochemical
T10 construct: The full firefly (Photinus pyralis) luciferase gene was PCR amplified from pGL3 (Promega); GST (N, cleaved yes); made in house; host or cells: E. coli JM109
Procedure: as §5, §4

L286M luciferase = molecular target: T11, L286M luciferase (Photinus pyralis, UniProt P08659, L286M); assay: Bioluminescence emission scan; assay type: biochemical
T11 construct: The full firefly (Photinus pyralis) luciferase gene was PCR amplified from pGL3 (Promega); GST (N, cleaved yes); made in house; host or cells: E. coli JM109
Procedure: as §5, §4

[3] = test system: Nc1ccc2nc(C3=N[C@@H](C(=O)O)CS3)sc2c1; assay: purified protein, by the assay type; settings: 3 minutes post-substrate addition, pH 7.6

T6 sequence (P08659 whole entry R218K/L342A): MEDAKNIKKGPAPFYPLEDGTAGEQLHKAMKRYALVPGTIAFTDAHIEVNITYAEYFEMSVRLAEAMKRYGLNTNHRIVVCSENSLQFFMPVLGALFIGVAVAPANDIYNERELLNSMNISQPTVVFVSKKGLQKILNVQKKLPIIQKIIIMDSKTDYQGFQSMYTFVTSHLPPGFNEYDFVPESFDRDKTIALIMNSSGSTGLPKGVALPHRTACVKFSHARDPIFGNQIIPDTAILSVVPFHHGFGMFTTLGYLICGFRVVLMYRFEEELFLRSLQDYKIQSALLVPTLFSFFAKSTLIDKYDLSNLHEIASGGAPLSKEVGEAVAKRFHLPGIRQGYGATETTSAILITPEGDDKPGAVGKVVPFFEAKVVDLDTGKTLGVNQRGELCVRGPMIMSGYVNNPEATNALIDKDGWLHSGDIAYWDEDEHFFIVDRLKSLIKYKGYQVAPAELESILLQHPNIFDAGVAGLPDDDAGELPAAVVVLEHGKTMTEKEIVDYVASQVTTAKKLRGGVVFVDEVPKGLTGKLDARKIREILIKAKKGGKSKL
T7 sequence (P08659 whole entry L286M/S347A): as the sequence (P08659 whole entry R218K/L342A) above, with K218R, L286M, A342L, S347A counted along it
T2 sequence (P08659 whole entry S347A): as the sequence (P08659 whole entry R218K/L342A) above, with K218R, A342L, S347A counted along it
T5 sequence (P08659 whole entry T251S): as the sequence (P08659 whole entry R218K/L342A) above, with K218R, T251S, A342L counted along it
T3 sequence (P08659 whole entry): as the sequence (P08659 whole entry R218K/L342A) above, with K218R, A342L counted along it
T9 sequence (P08659 whole entry L342A): as the sequence (P08659 whole entry R218K/L342A) above, with K218R counted along it
T4 sequence (P08659 whole entry L286M): as the sequence (P08659 whole entry R218K/L342A) above, with K218R, L286M, A342L counted along it
T8 sequence (P08659 whole entry R218K): as the sequence (P08659 whole entry R218K/L342A) above, with A342L counted along it
T1 sequence (P08659 whole entry R218K): as the sequence (P08659 whole entry R218K/L342A) above, with A342L counted along it
T11 sequence (P08659 whole entry L286M): as the sequence (P08659 whole entry R218K/L342A) above, with K218R, L286M, A342L counted along it
T10 sequence (P08659 whole entry F247V): as the sequence (P08659 whole entry R218K/L342A) above, with K218R, F247V, A342L counted along it

| Compound | Maximum Emission Wavelength of Selected Substrate (R218K + L342A luciferase) | Maximum Emission Wavelength of Selected Substrate (WT luciferase [2]) | Maximum Emission Wavelength of Selected Substrate (L286M + S347A luciferase) | Maximum Emission Wavelength of Selected Substrate (R218K luciferase) | Maximum Emission Wavelength of Selected Substrate (L342A luciferase) | other results |
| --- | --- | --- | --- | --- | --- | --- |
| CN(C)c1ccc2nc(C3=NC(C(=O)O)CS3)sc2c1 (stereo not shown) [6′-Me2NLH2] | 628 nm | 619 nm | 608 nm | 624 nm | 619 nm | Apparent Vmax (R218K mutant luciferase): 5 ± 0.1 ×10^−5 cps; Km (R218K mutant luciferase): 0.35 ± 0.04 µM; Apparent Vmax (S347A mutant luciferase): 2.1 ± 0.02 ×10^−5 cps; Km (S347A mutant luciferase): 0.24 ± 0.014 µM; Apparent Vmax (WT luciferase [1]): 0.5 ± 0.003 ×10^−5 cps; Km (WT luciferase [1]): 0.025 ± 0.003 µM; Apparent Vmax (L286M mutant luciferase): 1.3 ± 0.01 ×10^−5 cps; Km (L286M mutant luciferase): 0.08 ± 0.005 µM; Apparent Vmax (T251S mutant luciferase): 1.6 ± 0.02 ×10^−5 cps; Km (T251S mutant luciferase): 0.3 ± 0.02 µM |
| CNc1ccc2nc(C3=NC(C(=O)O)CS3)sc2c1 (stereo not shown) [6′-MeNHLH2, Monomethylaminoluciferin] | 612 nm | 608 nm | 599 nm | 610 nm | 611 nm | Apparent Vmax (R218K mutant luciferase): 38 ± 0.5 ×10^−5 cps; Km (R218K mutant luciferase): 0.45 ± 0.04 µM; Apparent Vmax (S347A mutant luciferase): 16 ± 0.2 ×10^−5 cps; Km (S347A mutant luciferase): 0.47 ± 0.03 µM; Apparent Vmax (WT luciferase [1]): 3 ± 0.02 ×10^−5 cps; Km (WT luciferase [1]): 0.06 ± 0.004 µM; Apparent Vmax (L286M mutant luciferase): 7 ± 0.05 ×10^−5 cps; Km (L286M mutant luciferase): 0.08 ± 0.005 µM; Apparent Vmax (T251S mutant luciferase): 8 ± 0.1 ×10^−5 cps; Km (T251S mutant luciferase): 0.27 ± 0.02 µM |
| CN1CCc2cc3nc(C4=N[C@@H](C(=O)O)CS4)sc3cc21 [CycLuc2] | 617 nm | 609 nm | 608 nm | 621 nm | 611 nm | Apparent Vmax (R218K mutant luciferase): 26 ± 0.3 ×10^−5 cps; Km (R218K mutant luciferase): 0.3 µM and 0.27 µM; improvement in the maximal sustained emission (R218K mutant luciferase; R218K mutant relative to wild-type luciferase): 20 fold; Apparent Vmax (S347A mutant luciferase): 7.6 ± 0.05 ×10^−5 cps; Km (S347A mutant luciferase): 0.11 ± 0.005 µM; Apparent Vmax (WT luciferase [1]): 1.3 ± 0.02 ×10^−5 cps; Apparent Vmax (L286M mutant luciferase): 2.3 ± 0.02 ×10^−5 cps; Km (L286M mutant luciferase): 0.1 ± 0.01 µM; Apparent Vmax (T251S mutant luciferase): 4.8 ± 0.1 ×10^−5 cps; Km (T251S mutant luciferase): 0.13 ± 0.02 µM; Maximum Emission Wavelength of Selected Substrate (R218K luciferase; listed as Cyc2): 619 nm |
| O=C(O)C1CSC(c2nc3cc4c(cc3s2)NCCO4)=N1 (stereo not shown) [CycLuc3, 2-(7,8-Dihydro-6H-5-oxa-1-thia-3,8-diaza-cyclopenta[b]naphthalen-2-yl)-4,5-dihydro-thiazole-4-carboxylic acid] | 606 nm | 599 nm | 590 nm | 605 nm | 599 nm | Wavelength at Max. Emission (WT luciferase [2]; Table 2): 594 nm; Wavelength at Max. Emission (F247V luciferase): 599 nm; Wavelength at Max. Emission (L286M luciferase): 592 nm |
| CN1CCOc2cc3nc(C4=NC(C(=O)O)CS4)sc3cc21 (stereo not shown) [CycLuc4, 2-(8-Methyl-7,8-dihydro-6H-5-oxa-1-thia-3,8-diaza-cyclopenta[b]naphthalen-2-yl)-4,5-dihydro-thiazole-4-carboxylic acid] | 616 nm | 607 nm | 602 nm | 617 nm | 608 nm |  |
| CC1=CC(C)(C)Nc2cc3sc(C4=NC(C(=O)O)CS4)nc3cc21 (stereo not shown) [CycLuc5, 2-(6,6,8-Trimethyl-5,6-dihydro-thiazolo[4,5-g]quinolin-2-yl)-4,5-dihydro-thiazole-4-carboxylic acid] | 633 nm | 637 nm | 631 nm | 635 nm | 631 nm |  |
| CC1=CC(C)(C)N(C)c2cc3sc(C4=NC(C(=O)O)CS4)nc3cc21 (stereo not shown) [CycLuc6, 2-(5,6,6,8-Tetramethyl-5,6-dihydro-thiazolo[4,5-g]quinolin-2-yl)-4,5-dihydro-thiazole-4-carboxylic acid] | 635 nm | 636 nm | 628 nm | 637 nm | 639 nm |  |
| O=C(O)C1CSC(c2nc3cc4c(cc3s2)NCCC4)=N1 (stereo not shown) [CycLuc7, 2-(5,6,7,8-Tetrahydro-thiazolo[4,5-g]quinolin-2-yl)-4,5-dihydro-thiazole-4-carboxylic acid] | 616 nm | 607 nm | 604 nm | 620 nm | 611 nm |  |
| CN1CCCc2cc3nc(C4=NC(C(=O)O)CS4)sc3cc21 (stereo not shown) [CycLuc8, 2-(5-Methyl-5,6,7,8-tetrahydro-thiazolo[4,5-g]quinolin-2-yl)-4,5-dihydro-thiazole-4-carboxylic acid] | 628 nm | 610 nm | 605 nm | 632 nm | 614 nm |  |
| CCCO [Propanol] | 609 nm | 608 nm | 593 nm | 609 nm | 607 nm |  |
| L286M mutant luciferase (Photinus pyralis; L286M) |  |  |  |  |  | Km ([3]; other: L286M luciferase): 4.35 ± 0.2 µM |
| R218K mutant luciferase (Photinus pyralis; R218K) |  |  |  |  |  | Km ([3]; other: R218K luciferase): 15.2 ± 1.1 µM |
| S347A mutant luciferase (Photinus pyralis; S347A) |  |  |  |  |  | Km ([3]; other: S347A luciferase): 31.0 ± 0.4 µM |
| T251S mutant luciferase (Photinus pyralis; T251S) |  |  |  |  |  | Km ([3]; other: T251S luciferase): 17.3 ± 0.3 µM |
